According to patent publication US20240067613A1, “NOVEL QUINAZOLINE DERIVATIVES AS SOS1 INHIBITORS AND USE THEREOF” (HANMI PHARMACEUTICAL CO., LTD., priority 2020, published 2024):

The compounds below were run against T1, SOS1 binding to KRAS G12C (Homo sapiens, UniProt Q07889) (assay: SOS1 GTP substitution inhibition test (HTRF/TR-FRET, KRAS G12C-SOS1 binding inhibitory ability)). Conditions: HTRF, GST-KRAS G12C (2-169), SOS1-Strep (564-1049), 1.6, 8, 40, 200, 1,000 nM.
T1 construct: consisting of amino acid residues 564 to 1049 which are the catalytic domain; purchased Reaction Biology Corporation MSC-11-502 (SOS1-Strep); MSC-11-538 (KRAS G12C)
T1 sequence (Q07889 564-1049): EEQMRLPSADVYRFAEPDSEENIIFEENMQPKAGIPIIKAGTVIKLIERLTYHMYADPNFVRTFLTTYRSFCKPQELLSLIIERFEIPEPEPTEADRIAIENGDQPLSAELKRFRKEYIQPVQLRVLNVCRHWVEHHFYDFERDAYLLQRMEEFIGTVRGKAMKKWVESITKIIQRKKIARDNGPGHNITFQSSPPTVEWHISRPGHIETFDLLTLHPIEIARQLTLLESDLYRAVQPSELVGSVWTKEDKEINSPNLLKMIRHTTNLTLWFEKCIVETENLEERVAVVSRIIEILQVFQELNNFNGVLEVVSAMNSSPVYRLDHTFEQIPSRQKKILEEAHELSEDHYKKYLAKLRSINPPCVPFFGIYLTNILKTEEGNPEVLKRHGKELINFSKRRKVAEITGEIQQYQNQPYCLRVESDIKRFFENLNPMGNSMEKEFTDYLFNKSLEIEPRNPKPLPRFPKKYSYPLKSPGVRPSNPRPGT
Type: biochemical
Description: In order to determine whether the substitution function of SOS1 binding to KRAS G12C is inhibited by the above-described example compounds, a homogeneous time-resolved fluorescence (HTRF) test was performed using G12C(#MSC-11-538) and SOS1-Strep(#MSC-11-502) purchased from Reaction Biology Corporation (MA, USA). The activity of SOS1 enzyme was determined by measuring the amount of GTP bound to KRAS G12C proteins, using the principle of time-resolved fluorescence energy transfer (TR-FRET). Based on the principle that terbium bound to the GST-binding antibody of the GST-KRAS G12C protein acts as a donor of fluorescence resonance energy transfer (FRET), and the GTP bound to the KRAS G12C protein is labeled with the fluorescent agent DY-647P1 and acts as a receiver, when the more GTP is bound to the KRAS G12C protein by the substitution reaction of SOS1 according to this test, the higher HTRF or FRET signal is measured. To summarize, glutathione S-transferase (GST)-tagged KRAS G12C proteins (consisting of amino acid residues 2 to 169) required for the reaction, streptavidin-tagged SOS1 proteins (consisting of amino acid residues 564 to 1049 which are the catalytic domain), anti-GST antibody (#61[…]) purchased from CISBIO corporation, nucleic acid (#NU-820-647P1) purchased from Jena Bioscience GmbH were mixed in a buffer solution formed from 10 mM HEPES pH7.4, 150 mM NaCl, 5 mM MgCl2, and 1 mM dithiothreitol (DTT), and the mixture was added to a 384-well plate and reacted at room temperature. Next, FRET signals were measured with a Perkin Elmer Envision microplate reader. In this case, an excitation signal (excitation) was measured at 320 nm, and an emission signal (emission) was measured at 615/665 nm. The fluorescence measurement value when the SOS1 protein was not included was calculated as a background signal value, and the background signal value was subtracted from all of the measured HTRF values. The fluorescence measurement value when the synthesized compound was not included was measured as a control value, and this value was selected as a reference point of 100%. For each of the example compounds, fluorescence was measured at concentrations of 1.6, 8, 40, 200, and 1,000 nM (5 points, 5-fold), and the 50% activity inhibition value (IC50) of each of the compounds was calculated using GraphPad Prism. When the IC50 value was 50 nM or less, the inhibitory ability was denoted as +++. When the IC50 value was more than 50 nM and 100 nM or less, the inhibitory ability was denoted as ++. When the IC50 value was more than 100 nM, the inhibitory ability was denoted as +.

SMILES | IC50 [nM]
Cc1nc(N[C@H](C)c2cc(N)cc(C(F)(F)F)c2)c2cc(NC3CCOCC3)c(C(=O)N3CCOCC3)cc2n1 [Example 48, (R)-(4-((1-(3-amino-5-(trifluoromethyl)phenyl)ethyl)amino)-2-methyl-6-((tetrahydro-2H-pyran-4-yl)amino)quinazoline-7-yl)(morpholino)methanone] | > 100
COc1cc2c(N[C@H](C)c3cc(N)cc(C(F)(F)F)c3)nc(C)nc2cc1C(=O)N1CC2COCC2C1 (stereo partly drawn) [Example 5, (4-(((R)-1-(3-amino-5-(trifluoromethyl)phenyl)ethyl)amino)-6-methoxy-2-methylquinazoline-7-yl)(tetrahydro-1H-furo[3,4-c]pyrrol-5(3H)-yl)methanone] | > 100
Cc1nc(N[C@H](C)c2cc(N)cc(C(F)(F)F)c2)c2cc(O[C@H]3CCOC3)c(C(=O)N3CCOCC3)cc2n1 [Example 27, (4-(((R)-1-(3-amino-5-(trifluoromethyl)phenyl)ethyl)amino)-2-methyl-6-(((S)-tetrahydrofuran-3-yl)oxy)quinazolin-7-yl)(morpholino)methanone] | 50 to 100
COc1cc2c(NC(C)c3cc(-c4cccc5c4CNCC5)cs3)nc(C)nc2cc1C(=O)N1CCOCC1 (centres unmarked) [Example 8, (6-methoxy-2-methyl-4-((1-(4-(1,2,3,4-tetrahydroisoquinolin-8-yl)thiophen-2-yl)ethyl)amino)quinazoline-7-yl)(morpholino)methanone] | > 100
CNCc1ccccc1-c1csc(C(C)Nc2nc(C)nc3cc(C(=O)N4CCOCC4)c(OC)cc23)c1 (centres unmarked) [Example 2, (6-methoxy-2-methyl-4-((1-(4-(2-((methylamino)methyl)phenyl)thiophen-2-yl)ethyl)amino)quinazoline-7-yl)(morpholino)methanone] | 50 to 100
COc1cc2c(N[C@H](C)c3cc(N)cc(C4CC4)c3)nc(C)nc2cc1C(=O)N1CCOCC1 [Example 24, (R)-(4-((1-(3-amino-5-cyclopropylphenyl)ethyl)amino)-6-methoxy-2-methylquinazolin-7-yl)(morpholino)methanone] | 50 to 100

More lines, now with the values ahead:

IC50 [nM] | SMILES
≤ 50 | COc1cc2c(N[C@H](C)c3cc(N)cc(C(F)(F)F)c3)nc(C)nc2cc1C(=O)N1CCS(=O)(=O)CC1 [Example 18, (R)-(4-((1-(3-amino-5-(trifluoromethyl)phenyl)ethyl)amino)-6-methoxy-2-methylquinazolin-7-yl)(1,1-dioxothiomorpholino)methanone]
≤ 50 | CNc1cc2c(N[C@H](C)c3cc(N)cc(C(F)(F)F)c3F)nc(C)nc2cc1C(=O)N1CCOCC1 [Example 50, (R)-(4-((1-(5-amino-2-fluoro-3-(trifluoromethyl)phenyl)ethyl)amino)-2-methyl-6-(methylamino)quinazoline-7-yl)(morpholino)methanone]
≤ 50 | CNc1cc2c(N[C@H](C)c3cc(N)cc(C(F)F)c3F)nc(C)nc2cc1C(=O)N1CCS(=O)(=O)CC1 [Example 64, (R)-(4-((1-(5-amino-3-(difluoromethyl)-2-fluorophenyl)ethyl)amino)-2-methyl-6-(methylamino)quinazoline-7-yl)(1,1-dioxothiomorpholino)methanone]
≤ 50 | Cc1nc(N[C@H](C)c2cc(N)cc(C(F)F)c2F)c2cc(NC(C)C)c(C(=O)N3CCOCC3)cc2n1 [Example 55, (R)-4-((1-(5-amino-3-(difluoromethyl)-2-fluorophenyl)ethyl)amino)-6-(isopropylamino)-2-methylquinazoline-7-(yl)(morpholino)methanone]
≤ 50 | CNc1cc2c(N[C@H](C)c3cc(N)cc(C(F)(F)F)c3)nc(C)nc2cc1C(=O)N1CCS(=O)(=O)CC1 [Example 59, (R)-(4-((1-(3-amino-5-(trifluoromethyl)phenyl)ethyl)amino)-2-methyl-6-(methylamino)quinazolin-7-yl)(1,1-dioxothiomorpholino)methanone]
